Series [1] deals with SAA induced IL-8 secretion in TM cells. Nature of the series: Inhibition of SAA induced IL-8 secretion in TM cells (IL-8 in media by ELISA). It counts as cell-based. As to the method:
FIG. 11. Effect of MAP p38 kinase inhibitors on induction of IL-8 by SAA treatment (1 μg/ml) in TM cells. […] IL-8 was measured in the media by ELISA.
(§1) FIG. 12. […] NTM650-03, p9 or HL-60 cells were treated in serum-free DMEM for 4 hours with 1 μg/ml SAA and the indicated concentrations of SB202580. IL-8 was measured in the media by ELISA.
(§2) One pathway for upregulation of IL-8 is through activation of MAP kinases.

The next series has as its system plasma SAA concentration. The settings on record: in vivo; cited from earlier work.
Series [2] relates to SAA stimulated IL-8 secretion in HL-60 cells. Nature of the series: Inhibition of SAA stimulated IL-8 secretion in HL-60 cells (IL-8 in media by ELISA). It counts as cell-based. The settings on record: for Times more effective than SB203580: HL60 cells, inhibition curves; for IC50: Homo sapiens, read-out: Calculated IC50, inhibition of SAA stimulated IL-8 secretion. Here is the method: as §1
FIG. 13. […] IL-8 was measured in the media by ELISA.
as §2

Series [3] concerns Adv.SAA2-induced IOP in mouse. Briefly: Mouse IOP after intravitreal injection of Adv.SAA2 + anti-CD40L; topical p38 MAPK inhibitor. The settings on record: topical 1% b.i.d. As to the method:
Contralateral eye of each animal was not injected. In addition to Adv, each animal received IP injection of anti-CD40L (0.5 mg/injection) on days −1, 0, 1, 2, 5, 9, & 14 to prolong the expression period of the Adv.SAA2. Mouse IOP was measured by Tonolab in a mask way. Mean of IOP for each eye was obtained from 18 to 30 measurements.

Series [4] has as its system perfused human anterior segments. Nature of the series: Perfusion cultured human eyes treated with recombinant SAA. The settings on record: 1 μg/mL, all five eyes. Here is the method:
FIG. 9. Effect of recombinant human Serum Amyloid A (rhSAA, 1 μg/mL; treatment started at time 0) on IOP of perfused human anterior segments.
FIG. 10. Effect of recombinant human Serum Amyloid A (rhSAA, 1 μg/mL; treatment started at time 0) on interleukin-8 (IL-8) level in the perfusate of perfused human anterior segments.
Five pairs of human eyes were perfused with media containing either recombinant SAA (1 μg/mL) (experimental eye) or an equivalent volume of vehicle (control eye). At the end of the culture period, 4 quadrants of each eye were examined by transmission electron microscopy to determine TM tissue viability. Perfusate of each eye was collected and used for ELISA measurement of IL-8 level. […] The change in IOP correlated with SAA-induced increase in interleukin-8 in the perfusates. All five pairs of eyes had acceptable post-perfusion TM viability scores.

A further series deals with HL-60 cells. Nature of the series: IL-8 secretion by HL-60 cells in response to rhSAA. It counts as cell-based. The settings on record: four hours, increasing concentrations. As to the method: FIG. 5. IL-8 secretion by HL-60 cells in response to increasing concentrations of rhSAA.
Cytokine-like properties of SAA include induction of IL-8 secretion by neutrophils. (Furlaneto and Campa, 2002; He et al. 2003). HL-60 cells, a promyelocytic cell line, was identified that responds to SAA with increased IL-8 secretion, and can be used for in vitro assays of SAA function. HL-60 cells were treated for four hours with increasing concentrations of recombinant human SAA, and IL-8 was measured in the media by ELISA. […] HL-60 cells can be used as a surrogate cell line for functional assays to identify agents that alter SAA function and expression levels.

[5] abbreviates: read-out: % Inhibition of SAA induced IL-8 secretion.
Setting [6] is: 1 μM, TM cells, read-out: % Inhibition of SAA induced IL-8 secretion.
Where [7] appears, read: 10 μM, TM cells, read-out: % Inhibition of SAA induced IL-8 secretion.
The mark [8] stands for this setting: 50 μM, TM cells, read-out: % Inhibition of SAA induced IL-8 secretion.

Entries after “also recorded” stand apart in the source; their conditions may differ. Read-outs that look alike come from different tables or passages of the source.

As for `C[S+]([O-])c1ccc(-c2nc(-c3ccc(F)cc3)c(-c3ccncc3)[nH]2)cc1` (stereo not shown) [SB203580, 4-(4-fluorophenyl)-2-(4-methylsulfinylphenyl)-5-(4-pyridyl)-1H-imidazole], the “Inhibition of SAA induced IL-8 expression (in words)” value (“Inhibition … (in words)” below) in series [1] (TM cells) was “most potent”. Further, in series [1] (setting [5]), the inhibition at 1 µM was determined as 16.3%, the inhibition at 10 µM amounted to 38.1%, the inhibition at 25 µM stood at 61% and the inhibition at 50 µM came to 73.8%. Further, the inhibition at 100 µM in series [1] (setting [5]) came to 98.7%.
For the molecule `N#CC(=C(/N)Sc1ccccc1N)/C(C#N)=C(/N)Sc1ccccc1N` [U0126, 1,4-diamino-2,3-dicyano-1,4-bis(2-aminophynyltio)butadiene], the inhibition at 1 µM in series [1] (setting [6]) is 30.9%. Further, the inhibition at 10 µM in series [1] (setting [7]) stood at 50.6%. The inhibition at 50 µM in series [1] (setting [8]) was determined as 53%.
For `Cc1cccc(Nc2cc(Cl)nc(SCC(=O)O)n2)c1C` [WY 14643, (4-chloro-6-(2,3-xylidino)-2-pryrimidinylthiol)-acetic acid], in the series on plasma SAA concentration, the “Plasma SAA concentration” value is recorded as “reduces”.
For `COc1cccc(-c2cc(=O)c3ccccc3o2)c1N` [PD98059, 2′-amino-3′-methoxyflavone], the inhibition at 50 µM in series [1] (setting [8]) is 34%.
In the case of `Cc1ccc(-n2nc(C(C)(C)C)cc2NC(=O)Nc2ccc(OCCN3CCOCC3)c3ccccc23)cc1` [BIRB-796, 1-(5-tert-butyl-2-p-tolyl-2H-pyrazol-3-yl)-3(4-(2-morpholin-4-yl-ethoxy)naph-thalen-1-yl)urea], in series [1] (setting [7]), the inhibition at 10 µM came out at 28.9%. The inhibition at 50 µM in series [1] (setting [8]) was 78.1%. For the same molecule, the “Inhibition … (in words)” value in series [1] (TM cells) was “most potent”. Moreover, the “Times more effective than SB203580” value in series [2] is recorded as “approximately 10 times”. Also, in series [2] (HL-60 cells, serum-free DMEM, 4 hours, 1 μg/ml SAA), the IC50 is 500 nM.
For the molecule `Fc1ccc(-c2c(-c3ccncc3)[nH]c3cccnc23)cc1` [4-azaindole, 3-(4-fluorophenyl)-2-(pyridin-4-yl)-1H-pyrrolo[3,2-b]pyridine], the “Inhibition … (in words)” value in series [1] (TM cells) is on record as “most potent”. In addition, in series [1] (setting [5]), the inhibition at 10 µM came out at 22.6% and the inhibition at 50 µM is 94.3%. Moreover, the “Effect on IOP in the non-injected eyes” value in series [3] is “did not affect IOP”. Besides, the “Effect on Ad.SAA2-induced ocular hypertension (IOP)” value in series [3] (days -1 to 7 and 13 to 17, Ad.SAA2 2×10^7 pfu/eye + antiCD40L) was “significantly inhibited; also recorded: blocked”. For the same molecule, the “Effect on iris hyperemia in the injected eyes” value in series [3] (Ad.SAA2-injected eyes) was “did not affect hyperemia”. Further, the “Time to lower IOP to baseline after drug administration was resumed at day 13” value in series [3] (Ad.SAA2-injected mouse eyes) was 3 days. Further, in series [2], the “Times more effective than SB203580” value is on record as “approximately 10 times”. The IC50 in series [2] (HL-60, 4 h) is 300 nM.
As for `Oc1ccc(-c2nc(-c3ccc(F)cc3)c(-c3ccncc3)[nH]2)cc1` [SB202190, 4-[4-(4-fluorophenyl)-5-(4-pyridinyl)-1H-imidazol-2-yl]phenol], the inhibition at 1 µM in series [1] (setting [6]) was 17.2%. The inhibition at 10 µM in series [1] (setting [7]) was 43.3%. Also, the inhibition at 50 µM in series [1] (setting [8]) was 38.2%.

B1: recombinant SAA: recombinant human Serum Amyloid A protein (protein, UniProt P0DJI8 19-122, looked up)
Serum amyloid A-1 protein: RSFFSFLGEAFDGARDMWRAYSDMREANYIGSDKYFHARGNYDAAKRGPGGAWAAEVITDARENIQRFFGHGAEDSLADQAANEWGRSGKDPNHFRPAGLPEKY
As to B1, in series [4], the “IL-8 level in perfusate” value is recorded as “elevated IL-8 level”. The “IOP of perfused human eyes” value in series [4] (within 24 h of treatment) is “elevated IOP”. The IL-8 secretion entry in the series on HL-60 cells was “increased in a dose dependent manner”.

These data come from patent US20070208043A1, “Use of Serum Amyloid A Gene in Diagnosis and Treatment of Glaucoma and Identification of Anti-Glaucoma Agents” (ALCON, INC., priority 2003, published 2007).
